Test systems include IGROV-1; SK-MEL-5; KM12; SR; HCT-116; NCI-H23; A498; COLO 205; SF-268; CAKI-1; MDA-MB-435; MDA-N; SF-539; A549; SK-MEL-2; M14; CCRF-CEM; U-251; ACHN; UACC-62.
Common to all, as to experiment: DTP human tumour cell line panel, 48 h

Molecules are shown by their SMILES.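 Values below derive from 48-hour exposures of cells grown in 96-well plates, with endpoints linearly interpolated between the two concentrations bracketing the appropriate inhibition level. GI50: concentration for 50% inhibition of growth.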 The source made the active and inactive calls. Rule as the data show it: active = GI50 up to about 1.1 µM and inactive = higher. Where a SMILES comes first, the peptide text is derived from it. The star is where a group is joined. ONb = O=[N+]([O-])c1ccc(CO*)cc1; Boc = CC(C)(C)OC(=O)*

The source of these data is ChEMBL document CHEMBL1201862, “PubChem BioAssay data set” (2004).

For `O=C(/C=C1\Sc2ccccc2N=C1CC(=O)c1ccccc1)c1ccccc1`, the GI50 (as a rule, the concentration at which growth is held to half of that of the control) with IGROV-1 was 3.61 µM (inactive); in the test with SK-MEL-5, 2.61 µM (inactive); in the test on KM12, 4.76 µM (inactive); with SR it was 1.4 µM (inactive); in the test on HCT-116, 4.9 µM (inactive); with NCI-H23 it was 35.6 µM (inactive). Further, the GI50 is 31.8 µM (inactive) with A498; 10.3 µM (inactive) in the test with COLO 205; 6.4 µM (inactive) with SF-268; 4.12 µM (inactive) with CAKI-1; 6.52 µM (inactive) in the test on MDA-MB-435; 8.22 µM (inactive) with MDA-N. In addition, the GI50 in the test with SF-539 is 13.2 µM (inactive); with A549, 5.33 µM (inactive); in the test on SK-MEL-2, 17.3 µM (inactive); in the test on M14, 6.14 µM (inactive); in the test with CCRF-CEM it was 2.36 µM (inactive); with U-251 it was 2.01 µM (inactive). Further, the GI50 in the test with ACHN is 4.39 µM (inactive).

As to `O=[N+]([O-])c1ccc2nc(Nc3ccccc3)c(Nc3ccccc3)nc2c1`, the GI50 was 1.58 µM (inactive) in the test with IGROV-1; 1.02 µM (active) with UACC-62; 1.49 µM (inactive) with SK-MEL-5; 1.3 µM (inactive) in the test on KM12; 0.489 µM (active) in the test with SR; 0.555 µM (active) in the test on HCT-116. For the same compound, the GI50 with NCI-H23 is 1.17 µM (inactive); in the test with A498, 0.929 µM (active); in the test with COLO 205, 1.62 µM (inactive); with SF-268, 1.62 µM (inactive); in the test on CAKI-1 it was 0.802 µM (active); in the test with MDA-MB-435, 1.66 µM (inactive). In addition, the GI50 in the test on MDA-N was 0.553 µM (active); with SF-539, 1.58 µM (inactive); with A549 it was 0.349 µM (active); in the test with SK-MEL-2 it was 2.15 µM (inactive); in the test on CCRF-CEM, 0.875 µM (active); with U-251, 0.512 µM (active). Besides, in the test on ACHN, the GI50 was 0.681 µM (active).

For `C=CCn1c(N)c(C#N)c(C#N)c1-c1ccccc1`, the GI50 with IGROV-1, in the test with UACC-62, in the test with SK-MEL-5, in the test on KM12, in the test on SR and with NCI-H23 was > 100 µM (inactive) each time. Further, the GI50 in the test on A498, in the test with COLO 205, in the test on SF-268, in the test on CAKI-1, in the test on MDA-MB-435 and in the test on MDA-N was > 100 µM (inactive) each time. The GI50 in the test on SF-539 is > 100 µM (inactive); in the test on A549 it was > 100 µM (inactive); with SK-MEL-2 it was 26.8 µM (inactive); with M14 it was > 100 µM (inactive); in the test with CCRF-CEM, > 100 µM (inactive); in the test on U-251, > 100 µM (inactive). Besides, the GI50 in the test on ACHN was > 100 µM (inactive).

As for `CCOC(=O)c1cc2c3c(c(C(C)=O)c(O)c2[nH]1)N(C(C)=O)CC3`, the GI50 with IGROV-1 is 31.8 µM (inactive); in the test on UACC-62, 81.3 µM (inactive); in the test with SK-MEL-5, 52.7 µM (inactive); in the test with KM12 it was 45.4 µM (inactive); in the test with SR, 50.6 µM (inactive); with HCT-116, 68.4 µM (inactive). Further, the GI50 in the test with NCI-H23 is 46.9 µM (inactive); in the test with A498, 52.5 µM (inactive); with COLO 205, 63.2 µM (inactive); in the test on SF-268 it was 55.8 µM (inactive); with CAKI-1, > 100 µM (inactive); in the test with MDA-MB-435, 89.3 µM (inactive). For the same compound, the GI50 in the test with MDA-N was > 100 µM (inactive); with SF-539 it was 48.9 µM (inactive); in the test with SK-MEL-2, > 100 µM (inactive); in the test on M14, 76.6 µM (inactive); in the test with CCRF-CEM it was 46 µM (inactive); in the test on U-251, > 100 µM (inactive). Besides, in the test on ACHN, the GI50 is 27.5 µM (inactive).

With `O=c1cc(N2CCOCC2)oc2c(-c3ccccc3)cccc12` [LY-294002], the GI50 in the test on IGROV-1 is 2.49 µM (inactive); in the test on UACC-62 it was 3.79 µM (inactive); with KM12 it was 12.1 µM (inactive); in the test on SR, 3.36 µM (inactive); with HCT-116 it was 12.6 µM (inactive); with NCI-H23, 3.76 µM (inactive). Further, the GI50 in the test with A498 was 2.48 µM (inactive); in the test on COLO 205 it was 13.5 µM (inactive); in the test on SF-268, 2.28 µM (inactive); in the test with CAKI-1, 2.39 µM (inactive); in the test on MDA-MB-435, 7.8 µM (inactive); with MDA-N it was 11.8 µM (inactive). Moreover, the GI50 with SF-539 was 7.98 µM (inactive); in the test on A549, 4.79 µM (inactive); in the test with SK-MEL-2, 9.93 µM (inactive); in the test with M14, 11.1 µM (inactive); in the test on CCRF-CEM, 39.1 µM (inactive); in the test with U-251 it was 19.5 µM (inactive). Also, the GI50 in the test on ACHN is 7.45 µM (inactive).

Consider `Cc1c(N=C(S)Nc2ccc(Cl)cc2)c(=O)n(-c2ccccc2)n1C`, for which the GI50 in the test with IGROV-1, with UACC-62, in the test with SK-MEL-5, in the test on KM12, in the test on SR and in the test on HCT-116 was > 100 µM (inactive) throughout. Also, the GI50 in the test on NCI-H23, with A498, with COLO 205, in the test on SF-268, in the test on CAKI-1 and in the test with MDA-MB-435 was > 100 µM (inactive) throughout. Further, the GI50 with MDA-N, with SF-539, in the test on A549, in the test with M14, with CCRF-CEM and in the test with U-251 was > 100 µM (inactive) each time. For the same compound, the GI50 in the test on ACHN was > 100 µM (inactive).

Turning to `Cc1c2ncccc2cc2oc3ccccc3c(=O)c12`, the GI50 with IGROV-1 was 4.63 µM (inactive); in the test with UACC-62 it was 50 µM (inactive); in the test on SK-MEL-5, 18.2 µM (inactive); in the test with KM12, 55.6 µM (inactive); with SR, 41.2 µM (inactive); in the test with HCT-116, 31.3 µM (inactive). For the same compound, the GI50 was 47.9 µM (inactive) with NCI-H23; 81.5 µM (inactive) with A498; 31.2 µM (inactive) in the test on COLO 205; 41.7 µM (inactive) with SF-268; 17.7 µM (inactive) in the test with CAKI-1; 56.8 µM (inactive) in the test on MDA-MB-435. Besides, the GI50 with MDA-N was 63.4 µM (inactive); in the test with SF-539 it was > 100 µM (inactive); with A549 it was 12.9 µM (inactive); with SK-MEL-2, > 100 µM (inactive); with CCRF-CEM, 16 µM (inactive); in the test on ACHN, 21.9 µM (inactive).

As to `CC(C)CC(NC(=O)OC(C)(C)C)C(=O)NC(CCC(=O)OCc1ccc([N+](=O)[O-])cc1)C(=O)OCc1ccc([N+](=O)[O-])cc1` (stereo not drawn) (Boc-Leu-Glu(ONb)-ONb; configuration not given here), the GI50 in the test with IGROV-1 was 24.4 µM (inactive); in the test with UACC-62, 28.4 µM (inactive); in the test with SR, 13.8 µM (inactive); in the test on HCT-116, 37.5 µM (inactive); with NCI-H23 it was 20 µM (inactive); with A498, 40.2 µM (inactive). The GI50 with COLO 205 was 17.4 µM (inactive); in the test with SF-268, 18.4 µM (inactive); with CAKI-1 it was > 100 µM (inactive); in the test with MDA-MB-435, > 10 µM (inactive); with MDA-N, 44.8 µM (inactive); in the test with SF-539, 18.7 µM (inactive). For the same compound, the GI50 in the test with SK-MEL-2 is 22.1 µM (inactive); with M14, 26.2 µM (inactive); in the test on CCRF-CEM, 19.8 µM (inactive); with U-251 it was 27.6 µM (inactive); in the test on ACHN, 46.6 µM (inactive).
